Measurements taken from article PMC7073924, “2-Aminomethylene-5-sulfonylthiazole Inhibitors of Lysyl Oxidase (LOX) and LOXL2 Show Significant Efficacy in Delaying Tumor Growth” (Journal of Medicinal Chemistry, 2019).
Several values for one entry are separate records, joined by “and”; a condition that tells them apart may be missing. Equal values may be shown once. Where a name gives a salt, the structure may show the parent alone. Read-outs that look alike come from different tables or passages of the source.

What was measured:
[1] = target: T1, LOXL3 (Homo sapiens, UniProt P58215); assay: LOXL3 enzyme assay (Promega ROS-Glo, cadaverine substrate); format: biochemical
T1 sequence (P58215 26-753): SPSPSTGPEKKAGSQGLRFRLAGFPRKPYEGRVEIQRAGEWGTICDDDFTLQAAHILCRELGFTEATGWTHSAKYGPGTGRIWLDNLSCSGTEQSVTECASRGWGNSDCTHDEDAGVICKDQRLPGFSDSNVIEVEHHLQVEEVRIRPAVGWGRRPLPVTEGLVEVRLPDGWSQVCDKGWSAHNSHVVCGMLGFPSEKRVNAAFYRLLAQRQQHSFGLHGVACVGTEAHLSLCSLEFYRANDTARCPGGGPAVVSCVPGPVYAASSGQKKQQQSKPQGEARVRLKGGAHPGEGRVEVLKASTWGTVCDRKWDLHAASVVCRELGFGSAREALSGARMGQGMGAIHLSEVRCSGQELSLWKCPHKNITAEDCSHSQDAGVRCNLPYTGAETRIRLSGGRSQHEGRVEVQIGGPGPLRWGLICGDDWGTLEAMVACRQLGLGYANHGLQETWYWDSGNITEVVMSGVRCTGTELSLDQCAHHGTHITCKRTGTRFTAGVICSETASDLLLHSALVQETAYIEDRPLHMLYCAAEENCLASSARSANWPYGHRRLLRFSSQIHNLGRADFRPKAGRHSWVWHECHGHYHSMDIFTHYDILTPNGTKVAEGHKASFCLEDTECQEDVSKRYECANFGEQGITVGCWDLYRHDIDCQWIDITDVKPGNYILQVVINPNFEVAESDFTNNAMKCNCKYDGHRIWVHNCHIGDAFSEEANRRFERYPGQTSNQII
Description: (§1) LOXL2 and LOXL3 were purchased from R&D Systems. LOX, LOXL2, and LOXL3 catalytic activity were determined using the Promega ROS-Glo assay kit with cadaverine dihydrochloride as substrate, BAPN as the reference inhibitor control, a preincubation time of 20 min, 1 h, or 3 h, with nine dilutions from a top concentration of 10 μM or 100 μM.

[2] = target: T2, LOXL2 (Homo sapiens, UniProt Q9Y4K0); assay: LOXL2 enzyme assay (Promega ROS-Glo, cadaverine substrate); format: biochemical; set-up: Activity (LOXL2 activity used in the RVM model data matrix): unit not given here
T2 sequence (Q9Y4K0 26-774): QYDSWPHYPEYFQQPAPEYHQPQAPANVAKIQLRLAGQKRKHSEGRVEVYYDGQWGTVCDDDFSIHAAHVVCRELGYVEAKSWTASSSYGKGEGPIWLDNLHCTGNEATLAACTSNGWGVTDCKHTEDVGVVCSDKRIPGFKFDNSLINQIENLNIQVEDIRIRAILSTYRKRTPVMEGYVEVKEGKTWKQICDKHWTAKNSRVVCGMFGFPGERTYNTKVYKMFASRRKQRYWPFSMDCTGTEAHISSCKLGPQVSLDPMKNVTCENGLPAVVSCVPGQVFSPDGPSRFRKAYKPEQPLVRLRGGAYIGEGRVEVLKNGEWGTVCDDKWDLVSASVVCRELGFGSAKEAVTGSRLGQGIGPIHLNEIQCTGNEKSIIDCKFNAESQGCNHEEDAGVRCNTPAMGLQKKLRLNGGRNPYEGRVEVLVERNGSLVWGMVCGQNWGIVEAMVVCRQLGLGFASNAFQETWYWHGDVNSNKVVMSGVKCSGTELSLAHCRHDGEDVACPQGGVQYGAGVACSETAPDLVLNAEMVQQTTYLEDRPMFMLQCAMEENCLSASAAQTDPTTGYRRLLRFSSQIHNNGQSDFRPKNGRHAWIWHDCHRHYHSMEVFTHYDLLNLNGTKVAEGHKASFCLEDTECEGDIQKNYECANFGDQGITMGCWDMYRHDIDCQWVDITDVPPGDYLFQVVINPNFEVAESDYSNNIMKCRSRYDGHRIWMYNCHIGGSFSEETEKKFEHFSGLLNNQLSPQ

[3] = target: T3, SSAO (Homo sapiens, UniProt Q16853); format: biochemical
T3 construct: purchased Sigma
T3 sequence (Q16853 1-763): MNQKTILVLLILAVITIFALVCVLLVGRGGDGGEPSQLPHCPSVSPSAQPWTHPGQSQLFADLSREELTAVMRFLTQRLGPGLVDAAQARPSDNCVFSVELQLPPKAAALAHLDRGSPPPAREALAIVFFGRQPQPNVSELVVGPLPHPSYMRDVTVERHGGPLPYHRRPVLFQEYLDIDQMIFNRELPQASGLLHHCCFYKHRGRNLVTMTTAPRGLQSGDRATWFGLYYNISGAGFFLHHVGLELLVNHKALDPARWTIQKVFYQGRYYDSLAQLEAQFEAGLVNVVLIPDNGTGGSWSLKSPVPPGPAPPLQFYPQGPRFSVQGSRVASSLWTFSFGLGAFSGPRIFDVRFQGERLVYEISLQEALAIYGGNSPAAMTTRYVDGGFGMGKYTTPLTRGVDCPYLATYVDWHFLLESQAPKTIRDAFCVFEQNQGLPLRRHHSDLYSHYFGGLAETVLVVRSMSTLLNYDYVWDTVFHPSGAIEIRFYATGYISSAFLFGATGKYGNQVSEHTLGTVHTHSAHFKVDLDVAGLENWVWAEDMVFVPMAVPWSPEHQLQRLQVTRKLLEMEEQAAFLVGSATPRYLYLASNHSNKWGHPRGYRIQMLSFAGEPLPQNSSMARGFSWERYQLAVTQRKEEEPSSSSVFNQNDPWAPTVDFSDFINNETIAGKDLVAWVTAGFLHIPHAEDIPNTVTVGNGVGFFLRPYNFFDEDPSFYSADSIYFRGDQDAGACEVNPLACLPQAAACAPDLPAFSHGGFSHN
Description: All amine oxidase assays were performed with concentrations as above. MAO-A and MAO-B enzymes were purchased from Sigma. The catalytic activity of MAO-A and MAO-B was determined using the Promega MAO-Glo assay kit (substrate included), with clorgyline and deprenyl as reference inhibitor controls, respectively. DAO was purchased from Sigma, and the catalytic activity was determined using the Promega ROS-Glo assay kit, with aminoguanidine as the reference inhibitor control. SSAO was purchased from Sigma. SSAO catalytic activity was determined using the Promega MAO-Glo assay kit, with mofegiline as the reference inhibitor control.

[4] = target: T4, LOX (Sus scrofa, UniProt P45845); assay: LOX enzyme assay (Promega ROS-Glo, cadaverine substrate); format: biochemical, pig; conditions: Table 6; 1 h preincubation
T4 sequence (P45845 1-249): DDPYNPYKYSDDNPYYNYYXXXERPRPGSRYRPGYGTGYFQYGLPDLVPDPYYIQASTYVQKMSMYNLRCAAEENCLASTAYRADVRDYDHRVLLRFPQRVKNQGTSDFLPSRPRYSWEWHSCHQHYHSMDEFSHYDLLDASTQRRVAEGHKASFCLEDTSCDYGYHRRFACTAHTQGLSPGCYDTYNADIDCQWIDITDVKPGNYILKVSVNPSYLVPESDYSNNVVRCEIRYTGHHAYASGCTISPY
Description: as §1

Question: Which IC50 [1] does the source give for CS(=O)(=O)c1cc(-c2ccccc2)cc(S(=O)(=O)c2ccc(CN)s2)c1 [Compound 3a] here?
Answer: 13.5 µM and 18.5 µM

Question: NCc1ccc(S(=O)(=O)c2ccc3ccccc3c2)s1 [Compound 4] was tested. Which “increase in LOXL2 potency on increasing preincubation from 20 min to 1 h” value [2] did it give?
Answer: ≤ 5 fold

Question: How did the IC50 [3] turn out when NCc1ncc(S(=O)(=O)c2ccc3ccccc3c2)s1 [Compound 6] was run?
Answer: 47.2 µM and 47.1 µM

Question: Which IC50 ([2]; read-out: LOXL2, IC50) does the source give for CNCc1ncc(S(=O)(=O)c2cc(-c3ccccc3)cc(S(C)(=O)=O)c2)s1 [Compound 7b, N-Methyl-1-(5-((5-(methylsulfonyl)-[1,1′-biphenyl]-3-yl)sulfonyl)thiazol-2-yl)methanamine Hydrochloride] here?
Answer: 68.3 µM

Question: With CS(=O)(=O)c1cc(-c2ccccc2)cc([S+]([O-])c2cnc(CN)s2)c1 (stereo not drawn) [Compound 7c, (5-((5-(Methylsulfonyl)-[1,1′-biphenyl]-3-yl)sulfinyl)thiazol-2-yl)methanamine Hydrochloride] as the molecule, how does the IC50 ([2]; read-out: LOXL2 IC50) read?
Answer: 0.244 µM and 0.236 µM

Question: With CS(=O)(=O)c1cc(Sc2cnc(CN)s2)cc(-c2ccccc2)c1 [Compound 7d, (5-((5-(Methylsulfonyl)-[1,1′-biphenyl]-3-yl)thio)thiazol-2-yl)methanamine Hydrochloride] as the molecule, how does the IC50 ([2]; read-out: LOXL2 IC50) read?
Answer: 0.233 µM

Question: And the IC50 [4]?
Answer: 1.31 µM and 1.13 µM

Question: How did the “Activity (LOXL2 activity used in the RVM model data matrix)” value [2] turn out when CCCS(=O)(=O)c1cnc(CN)s1 [Compound 10, (5-(Propylsulfonyl)thiazol-2-yl)methanamine Hydrochloride] was run?
Answer: 6.24

Question: And the IC50 ([2]; Table 3, 1 h preincubation, read-out: LOXL2 IC50)?
Answer: 0.554 µM and 0.59 µM

Question: With CS(=O)(=O)c1cccc(S(=O)(=O)c2cnc(CN)s2)c1 [Compound 13, (5-((3-(Methylsulfonyl)phenyl)sulfonyl)thiazol-2-yl)methanamine Hydrochloride] as the molecule, how does the IC50 ([2]; read-out: LOXL2 IC50) read?
Answer: 0.184 µM and 0.246 µM

Question: How did the IC50 ([2]; read-out: LOXL2 IC50) turn out when CS(=O)(=O)c1cccc(-c2cnc(CN)s2)c1 [Compound 14, (5-(3-(Methylsulfonyl)phenyl)thiazol-2-yl)methanamine Hydrochloride] was run?
Answer: 0.414 µM and 0.394 µM

Question: For NCc1ncc(-c2cccc(-c3ccccc3)c2)s1 [Compound 16, (5-([1,1′-Biphenyl]-3-yl)thiazol-2-yl)methanamine Hydrochloride], which IC50 ([2]; read-out: LOXL2 IC50) is on record?
Answer: 1.75 µM and 1.6 µM

Question: With CS(=O)(=O)c1cc(-c2ccccc2)cc(-c2cnc(CN)s2)c1 [Compound 17, (5-(5-(Methylsulfonyl)-[1,1′-biphenyl]-3-yl)thiazol-2-yl)methanamine Hydrochloride] as the molecule, how does the “Activity (LOXL2 activity used in the RVM model data matrix)” value [2] read?
Answer: 6.16

Question: What about the IC50 ([2]; read-out: LOXL2 IC50) of the same molecule?
Answer: 0.652 µM and 0.716 µM

Question: And the IC50 [4]?
Answer: 52 µM and 46.5 µM

Question: With Cc1ccc(-c2cc(S(C)(=O)=O)cc(S(=O)(=O)c3cnc(CN)s3)c2)cc1 [Compound 18, (5-((4′-Methyl-5-(methylsulfonyl)-[1,1′-biphenyl]-3-yl)sulfonyl)thiazol-2-yl)methanamine Hydrochloride] as the molecule, how does the IC50 [3] read?
Answer: 2.7 µM and 1.3 µM

Question: Which results are given for Cn1cc(-c2cc(Cl)cc(S(=O)(=O)c3cnc(CN)s3)c2)cn1 [Compound 21d, (5-((3-Chloro-5-(1-methyl-1H-pyrazol-4-yl)phenyl)sulfonyl)thiazol-2-yl)methanamine Hydrochloride]?
Answer: IC50 ([2]; Activity column of RVM_model_LOXL2.csv, Type = Data matrix, input activity for the RVM model of LOXL2, read-out: Activity (LOXL2 activity used in the RVM model data matrix) (converted)): 0.309 µM; IC50 ([2]; read-out: LOXL2 IC50): 0.28 µM
